23 compounds from patent publication US9994587B2, “HIV protease inhibitors” (priority 2014, dated 2018) can be followed below.

Each structure is given as a SMILES string.

The experiment concerns the target T1, wildtype HIV-1 protease (Human immunodeficiency virus type 1 group M subtype B, UniProt P04585).
T1 construct: preincubated with the HIV-1 protease (wild type) enzyme in assay buffer; made in house; host or cells: Escherichia coli
Put plainly: Assay for inhibition of microbial expressed HIV protease (Pepcleav). The experiment is classed as biochemical. The settings on record: wild type HIV-1 protease 20 pM, peptide substrate 400 micromolar, pH 5.5; mean of at least two independent experiments. How it is done:
Assay for Inhibition of Microbial Expressed HIV Protease (“Pepcleav”)
Studies of the inhibition of the wildtype HIV-1 protease (which was expressed in Escherichia coli) were carried out with a peptide substrate [Val-Ser-Gln-Asn-(βnaphtyl)Ala-Pro-Ile-Val (SEQ ID NO 1)]. The inhibitor was first preincubated with the HIV-1 protease (wild type) enzyme in assay buffer (50 mM sodium acetate, pH 5.5, 100 mM NaCl, and 0.1% BSA) for 30 minutes at room temperature. Substrate was added to 400 micromolar in a total volume of 20 microliters containing 20 picomolar HIV-1 protease (final) and the reaction is incubated for 1 hour at 30° C. The reaction was quenched with the addition of formic acid and indinavir to 0.012% and 150 nM final concentrations, respectively. Product formation was determined after separation of product and substrate on a Zorbax Eclipse XDB-C18 column connected to an API 4000 mass spectrometer (Applied Biosystems) with multiple reaction monitoring (transitions were 644.5/428.9 and 615.4/422.2 (M1/M3) for product and indinavir respectively). The extent of inhibition of the reaction was determined from the peak area of the products.
`COC(=O)N[C@H](C(=O)Nc1ccccc1CC[C@@H]1CNC[C@@H](CSc2nnc(Cn3nccc3C)o2)O1)C(c1ccccc1)c1ccccc1` [Example 33, methyl N-[(1S)-1-benzhydryl-2-[[2-[2-[(2R,6S)-6-[[5-[(5-methylpyrazol-1-yl)methyl]-1,3,4-oxadiazol-2-yl]sulfanylmethyl]morpholin-2-yl]ethyl]phenyl]amino]-2-oxo-ethyl]carbamate] yielded an IC50 of 0.67 nM.
`COC(=O)N[C@H](C(=O)Nc1ccccc1CC[C@@H]1CNC[C@@H](CSc2nnc(-c3ccncc3)o2)O1)C(c1ccccc1)c1ccccc1` [Example 34, methyl N-[(1S)-1-benzhydryl-2-oxo-2-[[2-[2-[(2R,6S)-6-[[5-(4-pyridyl)-1,3,4-oxadiazol-2-yl]sulfanylmethyl]morpholin-2-yl]ethyl]phenyl]amino]ethyl] carbamate] displayed a concentration for half-maximal inhibition (IC50) of 0.42 nM.
For `COC(=O)N[C@H](C(=O)Nc1ccccc1CC[C@@H]1CNC[C@@H](CSc2ncnc3[nH]ncc23)O1)C(c1ccccc1)c1ccccc1` [Example 35, methyl N-[(1S)-1-benzhydryl-2-oxo-2-[[2-[2-[(2R,6S)-6-(1H-pyrazolo[3,4-d]pyrimidin-4-ylsulfanylmethyl)morpholin-2-yl]ethyl]phenyl]amino]ethyl] carbamate] the value was 2.1 nM.
For the compound `COC(=O)N[C@H](C(=O)Nc1ccccc1CC[C@@H]1CNC[C@@H](CSc2ncnc3c2cnn3C)O1)C(c1ccccc1)c1ccccc1` [Example 36, methyl N-[(1S)-1-benzhydryl-2-[[2-[2-[(2R,6S)-6-[(1-methylpyrazolo[3,4-d]pyrimidin-4-yl)sulfanylmethyl]morpholin-2-yl]ethyl]phenyl]amino]-2-oxo-ethyl]carbamate], the IC50 came to 0.93 nM.
`COC(=O)N[C@H](C(=O)Nc1ccccc1CC[C@@H]1CNC[C@@H](COc2cccc3cc[nH]c23)O1)C(c1ccccc1)c1ccccc1` [Example 38, N-[2-(2-{(2R,6S)-6-[(1H-indol-7-yloxy)methyl]morpholin-2-yl}ethyl)phenyl]-Na-(methoxycarbonyl)-b-phenyl-L-phenylalaninamide] registered a half-maximal inhibitory concentration (IC50) of 240 nM.
`COC(=O)N[C@H](C(=O)Nc1ccccc1CC[C@@H]1CNC[C@@H](COc2ccc3cc[nH]c3c2)O1)C(c1ccccc1)c1ccccc1` [Example 39, N-[2-(2-{(2R,6S)-6-[(1H-indol-6-yloxy)methyl]morpholin-2-yl}ethyl)phenyl]-Na-(methoxycarbonyl)-b-phenyl-L-phenylalaninamide] displayed an IC50 of 100 nM.
As for `COC(=O)N[C@H](C(=O)Nc1ccccc1CC[C@@H]1CNC[C@@H](COc2cccc3nn[nH]c23)O1)C(c1ccccc1)c1ccccc1` [Example 40, N-[2-(2-{(2R,6S)-6-[(1H-benzotriazol-7-yloxy)methyl]morpholin-2-yl}ethyl)phenyl]-Na-(methoxycarbonyl)-b-phenyl-L-phenylalaninamide], the half-inhibitory concentration (IC50) was 68 nM.
Under `COC(=O)N[C@H](C(=O)Nc1ccccc1CC[C@@H]1CNC[C@@H](COc2cccc3cn[nH]c23)O1)C(c1ccccc1)c1ccccc1` [Example 41, N-[2-(2-{(2R,6S)-6-[(1H-indazol-7-yloxy)methyl]morpholin-2-yl}ethyl)phenyl]-Na-(methoxycarbonyl)-b-phenyl-L-phenylalaninamide] stands 26 nM; under `COC(=O)N[C@H](C(=O)Nc1ccccc1CC[C@@H]1CNC[C@@H](CSc2cccc3ncccc23)O1)C(c1ccccc1)c1ccccc1` [Example 42, methyl [(2S)-1-oxo-3,3-diphenyl-1-{[2-(2-{(2R,6S)-6-[(quinolin-5-ylsulfanyl)methyl]morpholin-2-yl}ethyl)phenyl]amino}propan-2-yl]carbamate], 0.94 nM.
With `COC(=O)N[C@H](C(=O)Nc1ccccc1CC[C@@H]1CNC[C@@H](COc2ccc(-n3cccn3)cc2)O1)C(c1ccccc1)c1ccccc1` [Example 43, N-α-(methoxycarbonyl)-β-phenyl-N-(2-{2-[(2R,6S)-6-{[4-(1H-pyrazol-1-yl)phenoxy]methyl}morpholin-2-yl]ethyl}phenyl)-L-phenylalaninamide], the 50% inhibitory concentration (IC50) is 4.7 nM.
As to `COC(=O)N[C@H](C(=O)Nc1ccccc1CC[C@@H]1CNC[C@@H](COc2ccc(C(F)(F)F)cc2)O1)C(c1ccccc1)c1ccccc1` [Example 44, N-α-(methoxycarbonyl)-β-phenyl-N-(2-{2-[(2R,6S)-6-{[4-(trifluoromethyl)phenoxy]methyl}morpholin-2-yl]ethyl}phenyl)-L-phenylalaninamide], the IC50 worked out at 14 nM.
`COC(=O)N[C@H](C(=O)Nc1ccccc1CC[C@@H]1CNC[C@@H](COc2ccc3cn[nH]c3c2)O1)C(c1ccccc1)c1ccccc1` [Example 45, N-[2-(2-{(2R,6S)-6-[(1H-indazol-6-yloxy)methyl]morpholin-2-yl}ethyl)phenyl]-Nα-(methoxycarbonyl)-β-phenyl-L-phenylalaninamide] returned an IC50 of 11 nM.
Under `COC(=O)N[C@H](C(=O)Nc1ccccc1CC[C@@H]1CNC[C@@H](COc2ccc(F)cc2)O1)C(c1ccccc1)c1ccccc1` [Example 46, N-[2-(2-{(2R,6S)-6-[(4-fluorophenoxy)methyl]morpholin-2-yl}ethyl)phenyl]-Nα-(methoxycarbonyl)-β-phenyl-L-phenylalaninamide] stands 23 nM.
`COC(=O)N[C@H](C(=O)Nc1ccccc1CC[C@@H]1CNC[C@@H](COc2cccc(F)c2)O1)C(c1ccccc1)c1ccccc1` [Example 47, N-[2-(2-{(2R,6S)-6-[(3-fluorophenoxy)methyl]morpholin-2-yl}ethyl)phenyl]-Nα-(methoxycarbonyl)-β-phenyl-L-phenylalaninamide] gave a concentration for half-maximal inhibition (IC50) of 12 nM.
For `COC(=O)N[C@H](C(=O)Nc1ccccc1CC[C@@H]1CNC[C@@H](COc2ccc3ncsc3c2)O1)C(c1ccccc1)c1ccccc1` [Example 48, N-[2-(2-{(2R,6S)-6-[(1,3-benzothiazol-6-yloxy)methyl]morpholin-2-yl}ethyl)phenyl]-Nα-(methoxycarbonyl)-β-phenyl-L-phenylalaninamide], the IC50 stood at 5.5 nM.
Under `COC(=O)N[C@H](C(=O)Nc1ccccc1CC[C@@H]1CNC[C@@H](COc2ccccc2F)O1)C(c1ccccc1)c1ccccc1` [Example 49, N-[2-(2-{(2R,6S)-6-[(2-fluorophenoxy)methyl]morpholin-2-yl}ethyl)phenyl]-Nα-(methoxycarbonyl)-β-phenyl-L-phenylalaninamide] stands 14 nM; under `COC(=O)N[C@H](C(=O)Nc1ccccc1CC[C@@H]1CNC[C@@H](COc2cccnc2C)O1)C(c1ccccc1)c1ccccc1` [Example 50, N-α-(methoxycarbonyl)-N-(2-{2-[(2R,6S)-6-{[(2-methylpyridin-3-yl)oxy]methyl}morpholin-2-yl]ethyl}phenyl)-β-phenyl-L-phenylalaninamide], 130 nM.
On to `COC(=O)N[C@H](C(=O)Nc1ccccc1CC[C@@H]1CNC[C@@H](COc2cccc3ncccc23)O1)C(c1ccccc1)c1ccccc1` [Example 51, methyl [(2S)-1-oxo-3,3-diphenyl-1-{[2-[2-{(2R,6S)-6-[(quinolin-5-yloxy)methyl]morpholin-2-yl}ethyl)phenyl]amino}propan-2-yl]carbamate], for which the concentration for half-maximal inhibition (IC50) was determined as 14 nM.
`COC(=O)N[C@H](C(=O)Nc1ccccc1CC[C@@H]1CNC[C@@H](COc2ccc(-c3ccncc3)cc2)O1)C(c1ccccc1)c1ccccc1` [Example 52, N-α-(methoxycarbonyl)-β-phenyl-N-(2-{2-[(2R,6S)-6-{[4-(pyridin-4-yl)phenoxy]methyl}morpholin-2-yl]ethyl}phenyl)-L-phenylalaninamide]: the IC50 came to 4 nM.
In turn, `COC(=O)N[C@H](C(=O)Nc1ccccc1CC[C@@H]1CNC[C@@H](COc2ccc3c(c2)NCCC3)O1)C(c1ccccc1)c1ccccc1` [Example 53, methyl [(2S)-1-oxo-3,3-diphenyl-1-{[2-(2-{(2R,6S)-6-[(1,2,3,4-tetrahydroquinolin-7-yloxy)methyl]morpholin-2-yl}ethyl)phenyl]amino}propan-2-yl]carbamate] had an IC50 of 13 nM.
On to `COC(=O)N[C@H](C(=O)Nc1ccccc1CC[C@@H]1CNC[C@@H](CSc2ncccc2Cl)O1)C(c1ccccc1)c1ccccc1` [Example 54, N-(2-{2-[(2R,6S)-6-{[(3-chloropyridin-2-yl)sulfanyl]methyl}morpholin-2-yl]ethyl}phenyl)-Nα-(methoxycarbonyl)-β-phenyl-L-phenylalaninamide], for which it took 0.93 nM to reach half-maximal inhibition (IC50).
As to `COC(=O)N[C@H](C(=O)Nc1ccccc1CC[C@@H]1CNC[C@@H](COc2ccc(S(N)(=O)=O)cc2)O1)C(c1ccccc1)c1ccccc1` [Example 55, N-α-(methoxycarbonyl)-β-phenyl-N-[2-(2-{(2R,6S)-6-[(4-sulfamoylphenoxy)methyl]morpholin-2-yl}ethyl)phenyl]-L-phenylalaninamide], the 50% inhibitory concentration (IC50) is 12 nM.
`COC(=O)N[C@H](C(=O)Nc1ccccc1CC[C@@H]1CNC[C@@H](CS(=O)(=O)c2ccc(Cl)cc2)O1)C(c1ccccc1)c1ccccc1` [Example 56, methyl N-[(1S)-1-benzhydryl-2-[[2-[2-[(2R,6S)-6-[(4-chlorophenyl)sulfonylmethyl]morpholin-2-yl]ethyl]phenyl]amino]-2-oxo-ethyl]carbamate] gave an IC50 of 110 nM.
